Source: ChEMBL document CHEMBL6078686, “Synthesis of 1-Hydroxy(and 1-Alkoxy, 1-Acyloxy)-1H-indoles and evaluations of their suppressive activities against tumor growth through inhibiting lactate dehydrogenase A” (Eur J Med Chem, 2025)
Activity calls are given as the source filed them. No cut-off for these calls is given here.

How the values were obtained:
[1] = test system: DLD-1; assay: Cytotoxicity against human DLD-1 cells assessed as inhibition of cell growth measured after 48 hrs incubation by MTT assay; format: functional
[2] = test system: PANC-1; assay: Cytotoxicity against human PANC-1 cells assessed as inhibition of cell growth measured after 48 hrs incubation by MTT assay; format: functional
[3] = Toxicity in male athymic mouse subcutaneously inoculated with human DLD-1 cells assessed as injury/inflammation in kidney at 5 to 25 mg/kg abdominally injected daily for 2 weeks after 15 days of tumor injection measured after 2 weeks; format: organism-based; settings: in vivo, 336 h, dose 5-25 mg/kg
[4] = test system: HeLa; assay: Cytotoxicity against human HeLa cells assessed as inhibition of cell growth measured after 48 hrs incubation by MTT assay; format: functional
[5] = Cytotoxicity against mouse AML12 cells assessed as inhibition of cell growth measured after 48 hrs incubation by MTT assay; format: toxicity, cell-based
[6] = Cytotoxicity against mouse Hepa1-6 cells assessed as inhibition of cell growth measured after 48 hrs incubation by MTT assay; format: toxicity, cell-based, Hepa 1-6
[7] = test system: U-87 MG; assay: Cytotoxicity against human U87 cells assessed as inhibition of cell growth measured after 48 hrs incubation by MTT assay; format: functional, U-87MG ATCC
[8] = molecular target: T1, L-lactate dehydrogenase A chain (Homo sapiens, UniProt P00338); assay: Non-competitive inhibition of human recombinant LDHA assessed as ratio of Km/Vmax in presence of pyruvate by measuring NADH fluorescence at 25 nM by Lineweaver-Burk plot analysis
[9] = Cytotoxicity against human T HESCs cells assessed as inhibition of cell growth measured after 48 hrs incubation by MTT assay; format: toxicity, cell-based
[10] = test system: DLD-1; assay: In vivo tumor suppressor activity against human DLD-1 cells subcutaneously implemented in male athymic mouse model assessed as caspase 3 activation in tumor tissue at 25 mg/kg abdominally injected daily for 2 weeks after 15 days of tumor injection measured after 2 weeks; format: functional, organism-based
[11] = molecular target: T1, L-lactate dehydrogenase A chain; assay: Inhibition of intracellular LDHA activity in human DLD-1 cell lysate assessed as conversion of NADH […] by spectrofluorometry; format: subcellular
[12] = Toxicity in male athymic mouse subcutaneously inoculated with human DLD-1 cells assessed as injury/inflammation in liver at 5 to 25 mg/kg abdominally injected daily for 2 weeks after 15 days of tumor injection measured after 2 weeks; format: organism-based; settings: in vivo, 336 h, dose 5-25 mg/kg
[13] = test system: DLD-1; assay: Induction of apoptosis in human DLD-1 cells assessed as caspase 3 at 20 to 40 uM measured after 48 hrs by Western blot analysis; format: functional, cell-based; settings: dose 20-40 µM
[14] = molecular target: T1, L-lactate dehydrogenase A chain; assay: Non-competitive inhibition of human recombinant LDHA assessed as ratio of Km/Vmax in presence of pyruvate by measuring NADH fluorescence at 100 nM by Lineweaver-Burk plot analysis
[15] = test system: DLD-1; assay: In vivo tumor suppressor activity against human DLD-1 cells subcutaneously implemented in male athymic mouse model assessed as reduction in tumor volume at 5 to 25 mg/kg abdominally injected daily for 2 weeks after 15 days of tumor injection measured after 2 weeks; format: functional, organism-based; settings: dose 5-25 mg/kg
[16] = test system: DLD-1; assay: Induction of apoptosis in human DLD-1 cells assessed as caspase 9 at 20 to 40 uM measured after 48 hrs by Western blot analysis; format: functional, cell-based; settings: dose 20-40 µM
[17] = molecular target: T1, L-lactate dehydrogenase A chain; assay: Inhibition of human recombinant LDHA assessed as conversion of NADH […] at by spectrofluorometry
[18] = test system: MCF7; assay: Cytotoxicity against human MCF7 cells assessed as inhibition of cell growth measured after 48 hrs incubation by MTT assay; format: functional
[19] = Toxicity in male athymic mouse subcutaneously inoculated with human DLD-1 cells assessed as weight loss at 5 to 25 mg/kg abdominally injected daily for 2 weeks after 15 days of tumor injection measured after 2 weeks; format: organism-based; settings: in vivo, 336 h, dose 5-25 mg/kg
[20] = test system: DLD-1; assay: In vivo tumor suppressor activity against human DLD-1 cells subcutaneously implemented in male athymic mouse model assessed as reduction in tumor weight at 5 to 25 mg/kg abdominally injected daily for 2 weeks after 15 days of tumor injection measured after 2 weeks; format: functional, organism-based; settings: dose 5-25 mg/kg
[21] = test system: DLD-1; assay: Induction of apoptosis in human DLD-1 cells assessed as PARP at 20 to 40 uM measured after 48 hrs by Western blot analysis; format: functional, cell-based; settings: dose 20-40 µM
[22] = test system: A549; assay: Cytotoxicity against human A549 cells assessed as inhibition of cell growth measured after 48 hrs incubation by MTT assay; format: functional
[23] = test system: CCCCCCOCc1c(C(=O)OC)n(O)c2cccc(Br)c12; assay: Non-competitive inhibition of human recombinant LDHA assessed as Vmax in presence of pyruvate by measuring NADH fluorescence at 100 nM by Lineweaver-Burk plot analysis
[24] = test system: CCCCCCOCc1c(C(=O)OC)n(O)c2cccc(Br)c12; assay: Non-competitive inhibition of human recombinant LDHA assessed as Km in presence of pyruvate by measuring NADH fluorescence at 100 nM by Michaelis-Menten analysis
[25] = test system: COC(=O)c1c(COCCc2ccccc2)c2c(Br)cccc2n1OC; assay: Non-competitive inhibition of human recombinant LDHA assessed as Km in presence of pyruvate by measuring NADH fluorescence at 160 nM by Michaelis-Menten analysis
[26] = test system: CCCCCCOCc1c(C(=O)OC)n(O)c2cccc(Br)c12; assay: Non-competitive inhibition of human recombinant LDHA assessed as Vmax in presence of pyruvate by measuring NADH fluorescence at 25 nM by Lineweaver-Burk plot analysis
[27] = test system: COC(=O)c1c(COCCc2ccccc2)c2c(Br)cccc2n1OC; assay: Non-competitive inhibition of human recombinant LDHA assessed as Vmax in presence of pyruvate by measuring NADH fluorescence at 160 nM by Lineweaver-Burk plot analysis
[28] = test system: COC(=O)c1c(COCCc2ccccc2)c2c(Br)cccc2n1OC; assay: Non-competitive inhibition of human recombinant LDHA assessed as Km in presence of pyruvate by measuring NADH fluorescence at 40 nM by Michaelis-Menten analysis
[29] = test system: CCCCCCOCc1c(C(=O)OC)n(O)c2cccc(Br)c12; assay: Non-competitive inhibition of human recombinant LDHA assessed as Km in presence of pyruvate by measuring NADH fluorescence at 25 nM by Michaelis-Menten analysis
[30] = test system: COC(=O)c1c(COCCc2ccccc2)c2c(Br)cccc2n1OC; assay: Non-competitive inhibition of human recombinant LDHA assessed as Vmax in presence of pyruvate by measuring NADH fluorescence at 40 nM by Lineweaver-Burk plot analysis
[31] = molecular target: T1, L-lactate dehydrogenase A chain; assay: Non-competitive inhibition of human recombinant LDHA assessed as ratio of Km/Vmax in presence of pyruvate by measuring NADH fluorescence at 160 nM by Lineweaver-Burk plot analysis
[32] = molecular target: T1, L-lactate dehydrogenase A chain; assay: Non-competitive inhibition of human recombinant LDHA assessed as ratio of Km/Vmax in presence of pyruvate by measuring NADH fluorescence at 40 nM by Lineweaver-Burk plot analysis

Molecule | GI50 [1] | GI50 [2] | GI50 [4] | GI50 at 48 h [5] | GI50 at 48 h [6] | GI50 [7] | GI50 at 48 h [9] | inhibition [11] | IC50 [17] | inhibition [17] | GI50 [18] | GI50 [22] | further results
COC(=O)c1cc2c(C(F)(F)F)cc(-c3ccccc3)cc2n1O | 106 µM | – | – | – | – | – | – | – | – | – | – | – | –
CCCCCCOCc1c(C(=O)OC)n(O)c2cccc(Br)c12 | 27 µM | 31.4 µM | 39.6 µM | > 100 µM | 49.6 µM | 60.9 µM | > 100 µM | Dose-dependent-effect | 0.025 µM | Dose-dependent-effect | 31.7 µM | 45.6 µM | Activity [3]: Non-toxic; Vmax/Km [8]: 0.056; Activity [10]: Active; IC50 [11]: 11.6 µM; Activity [12]: Non-toxic; Activity [13]: Active; Vmax/Km [14]: 0.047; Activity [15]: Active; Activity [16]: Active; Activity [19]: Non-toxic; Activity [20]: Active; Activity [21]: Active
L-lactate dehydrogenase A chain (Homo sapiens) (from UniProt P00338) | – | – | – | – | – | – | – | – | – | – | – | – | Vmax [23]: 3.6; Km [24]: 170 µM; Km [25]: 189 µM; Vmax [26]: 4.54; Vmax [27]: 5.01; Km [28]: 172 µM; Km [29]: 254 µM; Vmax [30]: 5.84
COC(=O)c1c(COCCc2ccccc2)c2c(Br)cccc2n1OC | > 100 µM | > 100 µM | 83.5 µM | 85.2 µM | 56.2 µM | 66.7 µM | > 100 µM | inactive | 0.124 µM | Dose-dependent-effect | > 100 µM | > 100 µM | Vmax/Km [31]: 0.038; Vmax/Km [32]: 0.029
